Here are results for 2 compounds from patent US20240299393A1, “SMALL MOLECULE DISRUPTORS OF PROTEIN INTERACTIONS IN HISTONE DEACETYLASE COMPLEXES” (Dana-Farber Cancer Institute, Inc., priority 2021, published 2024).

The subject of data set [1] is full-length G. princeps luciferase. The experiment in a line: GPCA control with full-length luciferase. The data set is classed as cell-based, Gaussia princeps. The settings on record: 16 h. The protocol: The ability of compounds to inhibit binary PPIs in the Sin3/Rpd3L HDAC complex was tested by GPCA in a high-throughput screening format. Interactions identified in the mapping at 1.0% […]2 detection cutoff were reconstituted by expressing protein pairs in the exact same orientations. […] HEK293T cells were transfected with 100 ng of each GPCA plasmid expressing either protein X, or protein Y, as described above. […] The luminescence signal for each PPI was measured by averaging the different DMSO replicates, and calculating the standard deviation of DMSO values for each interaction. For each PPI, an individual data point for every compound tested was obtained and this value was compared to the averaged DMSO value. For each interaction, a particular compound was scored as a PPI inhibitor when it decreased its luminescence signal by at least three standard deviations compared to the corresponding averaged DMSO value. […] 50 μL/well of the Renilla luciferase substrate (Renilla Luciferase Assay system, cat #E2820, Promega) were then added and luminescence was read approximately two minutes after injection using a Centro XS^3 LB960 plate reader (3 s integration). For each plate, signal was measured twice and the first measurement was used for calculations. Results were normalized by averaging raw luminescence values from DMSO wells and dividing each data point by this averaged value.

The test system of data set [2] is human neuroblastoma SK-N-BE(2)-C xenograft. The experiment in a line: Neuroblastoma xenograft efficacy study. To be noted: E6R 50 mg/kg, SAHA 20 mg/kg. The data set is classed as in vivo. How it is done: Xenografts studies were performed at the TRACE PDX platform of the Leuven Cancer Institute (LKI) at KU Leuven-UZ Leuven. Treatment experiments included 24 NMRI-Foxlnu nude mice (Taconic) implanted with human neuroblastoma cell line SK-N-BE(2)-C(2 million cells/implant/mouse). Cells, tested for a full panel of murine pathogens (Impact profile I, IDEXX) prior to engraftment, were resuspended in 50% matrigel solution in PBS for injection in the mouse right flank. When tumors reached a volume of approximately 200 mm^3, mice were randomly assigned to vehicle (34% DMSO, 55% saline 0.9%, 5% ethanol, 5% kolliphor, 1% NaOH 1 M), E6R (50 mg/kg), or SAHA (20 mg/kg) treatment groups. Treatments were administered daily intraperitoneally for 10 days or until reaching human endpoint (i.e. tumor volume >1,500 mm^3). Tumors were measured daily with digital calipers, and volume was estimated as V=L×W×H×(π/6) (L: length; W: width; H: height). […] All data were analyzed using GraphPad Prism 8. Comparisons between the vehicle and treated groups were tested for statistical significance using […].

Data set [3] in a line: Tolerability of chronic treatment in mice. It counts as in vivo. To be noted: 50 mg/kg I.P. daily for 10 days. How it is done:
For the pilot RT-qPCR experiment, in addition to the vehicle condition (ethanol 100%/kolliphor/saline 0.9% in a proportion of 1:1:14.4; for the 50 mg/kg dose, 14 μL NaOH 1M were also added), three doses (mg/kg) of E6R were tested: 5, 15, and 50, with 4 (vehicle) or 3 (E6R) animals per group. A dose of 50 mg/kg was picked to conduct further experiments. For the RNA-Seq experiment, E6R was dissolved in a vehicle solution containing saline 55% v/v, DMSO 34% v/v, ethanol 5% v/v, kolliphor EL (Sigma-Aldrich, MO, USA) 5% v/v, NaOH 1M 1% v/v. The vehicle group received the same solution. Animals were injected daily by intraperitoneal (I.P.) injection with 5 μL/g of the solution (50 mg/kg of the drug or vehicle) at 11 am for 10 days. Animal wellness was verified by daily visual inspection and weighing. […] On the 11th day, animals were sacrificed by bleeding via heart puncture under carbon dioxide anesthesia. The brains were quickly removed and the bilateral frontal cortex (bregma 1.90 to 1.40 mm) was dissected followed by total RNA extraction. The spleens were also collected in the pilot RT-qPCR experiments.

Each structure is given as a SMILES string. Entries after “also recorded” stand apart in the source; their conditions may differ.

On to `CC(NC(=O)c1c(O)n2ccccc2nc1=O)c1ccccc1` (racemic) [E6], for which, in data set [1], the “effect on full-length G. princeps luciferase” value was “does not perturb”.
Consider `C[C@@H](NC(=O)c1c(O)n2ccccc2nc1=O)c1ccccc1` [E6R, 4-hydroxy-2-oxo-N—((R)-1-phenylethyl)-3,4-dihydro-2H-pyrido[, 2-a]pyrimidine-3-carboxamide], for which the “tolerability and body weight of xenografted mice” value in data set [2] (daily) is “did not affect mice weight; also recorded: well-tolerated”. In addition, the “growth of neuroblastoma tumors compared to vehicle” value in data set [2] (daily intraperitoneally 10 days) is “significantly reduced the growth”. Further, the “tolerability, behavior and body mass” value in data set [3] is listed as “No abnormal behavior or significant body mass decrease (>5%); also recorded: well-tolerated”.
